We go through three molecules from patent US10907158B2, “Antisense antibacterial compounds and methods” (priority 2015, dated 2021).

One test deals with NDM-1 strains. Put plainly: MIC of meropenem in various concentrations of NDM-1 PPMO. The test is classed as cell-based, K. pneumoniae. The following applies: Klebsiella pneumoniae; meropenem without PPMO.
Another test deals with K. pneumoniae. Kind of test: MIC of meropenem in various concentrations of KPC PPMO. The settings on record: Klebsiella pneumoniae, read-out: MIC of meropenem.
Another test deals with E. coli BW25113. Type of test: cell-based. The settings on record: Pip/Tazo alone, 18 h, MHII.
Another test relates to Pseudomonas aeruginosa. The settings on record: 18 hours.

Usually MIC stands for the lowest concentration that inhibits growth of the organism.

Method for Pseudomonas aeruginosa: Strains were grown on MSEC biofilm plates for 18 hours in the presence of PMBN at 2 μg/ml and the PPMO, a scrambled PPMO or nothing. The numbers in each cell represent the concentration of PPMO that reduced biofilm by 50% or greater.
Pseudomonas biofilms were grown in the presence or absence of PPMOs (as indicated). Biofilms were grown for 18 hours and then stained with crystal violet. Three strains were tested with multiple PPMO doses as shown. Percent reduction compared to no PPMO control is shown.
Polymyxin B nonapeptide (PMBN) was used at sub-inhibitory concentrations to enhance delivery of PPMOs in Pseudomonas.

Regarding `C[C@@H](O)[C@H]1C(=O)N2C(C(=O)O)=C(S[C@@H]3CN[C@H](C(=O)N(C)C)C3)[C@H](C)[C@H]12` [meropenem], the results for the MIC with NDM-1 strains and with K. pneumoniae were 64 mg/L and 32 mg/L, respectively.
In turn, Piperacillin/Tazobactam [Pip/Tazo] had an MIC against E. coli BW25113 of 4 mg/L.
With Polymyxin B nonapeptide [PMBN], the “effect on biofilm formation” value with Pseudomonas aeruginosa is reported as “did not significantly alter biofilm formation”.
